US20050176775A1, “Substituted pyridinones” (priority 2003, published 2005)

Compound	melting point
NCCc1cccc(Cn2ccc(OCc3ccc(F)cc3F)c(Br)c2=O)c1.O=C(O)C(F)(F)F	70 to 74 °C
Cl.O=c1c(Br)c(OCc2ccccc2)ccn1CC1CCCNC1 (stereo not drawn)	138.1 to 139.2 °C
NCc1cccc(Cn2ccc(OCc3ccc(F)cc3)c(Br)c2=O)c1.O=C(O)C(F)(F)F	127 to 139 °C
NCc1cccc(Cn2ccc(OCc3ccc(F)cc3F)c(Br)c2=O)c1.O=C(O)C(F)(F)F	80 to 84 °C
O=C(O)C(F)(F)F.O=c1c(Cl)c(OCc2ccc(F)cc2F)ccn1Cc1cccc2cnccc12	235 to 238 °C
Cc1ccc(Cn2ccc(OCc3ccccc3)c(Br)c2=O)cc1 [Example 2, 4-(benzyloxy)-3-bromo-1-(4-methylbenzyl)pyridin-2(1H)-one]	150.4 to 151.2 °C
Br.Cn1ccc(OCc2ccccc2)c(Br)c1=O [Example 22, 4-(benzyloxy)-3-bromo-1-methylpyridin-2(1H)-one Hydrobromide]	105.3 to 105.6 °C
NC(=NO)c1ccc(Cn2ccc(OCc3ccccc3)c(Br)c2=O)cc1 [Example 24, 4-{[4-(benzyloxy)-3-bromo-2-oxopyridin-1(2H)-yl]methyl}-N′-hydroxybenzenecarboximidamide]	210.2 to 212.2 °C
Cl.O=c1c(Br)c(OCc2ccccc2)ccn1CC1CCNCC1 [Example 25, 4-(benzyloxy)-3-bromo-1-(piperidin-4-ylmethyl)pyridin-2(1H)-one Hydrochloride]	207.9 °C
O=c1c(Br)c(OCc2ccccc2)ccn1CCc1ccsc1 [Example 29, 4-(benzyloxy)-3-bromo-1-(2-thien-3-ylethyl)pyridin-2(1H)-one]	134 to 134.3 °C
O=c1c(Br)c(OCc2ccccc2)ccn1CCc1cccs1 [Example 30, 4-(benzyloxy)-3-bromo-1-(2-thien-2-ylethyl)pyridin-2(1H)-one]	128 to 129.5 °C
O=c1cc(OCc2c(Cl)cccc2Cl)ccn1Cc1ccccc1 [Example 40, 1-benzyl-4-[2,6-(dichlorobenzyl)oxy]pyridin-2(1H)-one]	151.6 to 152 °C
O=c1cc(OCc2ccccc2Cl)ccn1Cc1ccccc1 [Example 42, 1-benzyl-4-[(2-chlorobenzyl)oxy]pyridin-2(1H)-one]	124.6 to 125 °C
O=c1c(Br)c(OCc2ccccc2Cl)ccn1Cc1ccccc1 [Example 43, 1-benzyl-3-bromo-4-[(2-chlorobenzyl)oxy]pyridin-2(1H)-one]	143.3 to 145.5 °C
Cc1ccc(COc2ccn(Cc3ccccc3)c(=O)c2Br)cc1 [Example 44, 1-benzyl-3-bromo-4-[(4-methylbenzyl)oxy]pyridin-2(1H)-one]	149 to 149.7 °C
O=c1cc(OCc2cccc(Cl)c2)ccn1Cc1ccccc1 [Example 45, 1-benzyl-4-[(3-chlorobenzyl)oxy]pyridin-2(1H)-one]	95.5 to 95.7 °C
O=c1c(Br)c(SCc2ccccc2)ccn1Cc1ccccc1 [Example 46, 1-benzyl-4-[benzylthio]-3-bromopyridin-2(1H)-one]	180.6 to 182.1 °C

Compound	melting point
O=c1c(Br)c(OCc2ccccc2C(F)(F)F)ccn1Cc1ccccc1 [Example 47, 1-benzyl-3-bromo-4-{[2-(trifluoromethyl)benzyl]oxy}pyridin-2(1H)-one]	133.2 to 133.5 °C
O=c1c(Br)c(OCc2ccc(F)cc2)ccn1CC1CC1 [Example 59, 3-bromo-1-cyclopropylmethyl-4-(4-fluorobenzyloxy)-1H-pyridin-2-one]	139 to 141 °C
CC(C)(C)OC(=O)NCc1cccc(Cn2ccc(OCc3ccc(F)cc3)c(Br)c2=O)c1 [Example 70, {3-[3-bromo-4-(4-fluorobenzyloxy)-2-oxo-2H-pyridin-1-ylmethyl]benzyl}carbamic Acid Tert-Butyl Ester]	136 to 138 °C
COC(=O)c1ccccc1Cn1ccc(OCc2ccc(F)cc2)c(Br)c1=O [Example 72, methyl 2-[3-Bromo-4-(4-fluorobenzyloxy)-2-oxo-2H-pyridin-1-ylmethyl]benzoate]	161 to 165 °C
CN(C)Cc1ccc(Cn2ccc(OCc3ccc(F)cc3F)c(Br)c2=O)cc1 [Example 74, 3-bromo-4-(2,4-difluorobenzyloxy)-1-[(4-dimethylaminomethyl)benzyl]-1H-pyridin-2-one]	111 to 113 °C
CC(C)NCc1cccc(Cn2ccc(OCc3ccc(F)cc3F)c(Br)c2=O)c1 [Example 75, 3-bromo-4-(2,4-difluorobenzyloxy)-1-[3-(isopropylaminomethyl)benzyl]-1H-pyridin-2-one]	109 to 110 °C
CN(C)Cc1cccc(Cn2ccc(OCc3ccc(F)cc3F)c(Br)c2=O)c1 [Example 76, 3-bromo-4-(2,4-difluorobenzyloxy)-1-[(3-dimethylaminomethyl)benzyl]-1H-pyridin-2-one]	103 to 107 °C
CNCc1cccc(Cn2ccc(OCc3ccc(F)cc3F)c(Br)c2=O)c1 [Example 77, 3-Bromo-4-(2,4-difluorobenzyloxy)-1-[(3-methylaminomethyl)benzyl]-1H-pyridin-2-one]	107 to 111 °C
CC(C)(C)OC(=O)NCc1cccc(Cn2ccc(OCc3ccc(F)cc3F)c(Br)c2=O)c1 [Example 78, {3-[3-bromo-4-(2,4-difluorobenzyloxy)-2-oxo-2H-pyridin-1-ylmethyl]benzyl}carbamic Acid Tert-Butyl Ester]	80 to 84 °C
CC(C)NCc1ccc(Cn2ccc(OCc3ccc(F)cc3F)c(Cl)c2=O)cc1 [Example 80, 3-chloro-4-(2,4-difluorobenzyloxy)-1-[4-(isopropylaminomethyl)benzyl]-1H-pyridin-2-one]	146 to 151 °C
CS(=O)(=O)c1cccc(Cn2ccc(OCc3ccc(F)cc3F)c(Cl)c2=O)c1 [Example 81, 3-chloro-4-(2,4-difluorobenzyloxy)-1-[(3-methanesulfonyl)benzyl]-1H-pyridin-2-one]	155 to 157 °C
CS(=O)(=O)c1ccc(Cn2ccc(OCc3ccc(F)cc3F)c(Cl)c2=O)cc1 [Example 82, 3-chloro-4-(2,4-difluorobenzyloxy)-1-[(4-methanesulfonyl)benzyl]-1H-pyridin-2-one]	223 to 225 °C
NC(=O)c1ccc(Cn2ccc(OCc3ccc(F)cc3F)c(Cl)c2=O)cc1 [Example 83, 4-[3-chloro-4-(2,4-difluorobenzyloxy)-2-oxo-2H-pyridin-1-ylmethyl]benzamide]	235 to 238 °C
O=c1c(Cl)c(OCc2ccc(F)cc2F)ccn1Cc1cccc2c1CCNC2 [Example 85, 3-chloro-4-(2,4-difluorobenzyloxy)-1-(1,2,3,4-tetrahydroisoquinolin-5-ylmethyl)-1H-pyridin-2-one]	180 to 184 °C
O=c1c(Cl)c(OCc2ccc(F)cc2F)ccn1Cc1ccc2[nH]ccc2c1 [Example 86, 3-chloro-4-(2,4-difluorobenzyloxy)-1-(1H-indol-5-ylmethyl)-1H-pyridin-2-one]	152 to 153 °C
O=c1c(Cl)c(OCc2ccc(F)cc2F)ccn1Cc1ccc2c(c1)CCN2 [Example 88, 3-chloro-4-(2,4-difluorobenzyloxy)-1-(2,3-dihydro-1H-indol-5-ylmethyl)-1H-pyridin-2-one]	137 to 139 °C
